From patent US11149018B2, “Substituted N-arylethyl-2-aminoquinoline-4-carboxamides and use thereof” (Bayer Aktiengesellschaft, priority 2017, dated 2021)

The compounds below were run against FP receptor (Homo sapiens (Human), UniProt P43088) (assay: In vitro test of inhibition of human FP receptor activity (PGF2α-induced calcium flux in FP-expressing CHEM1 cells)). Conditions: PGF2α 2 nM, some mean values of multiple determinations.
Type: cell-based
Summary of the method: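 FP antagonism in FP-expressing CHEM1 cells loaded with Fluo-8. Compound preincubated 10 min at 37° C, then receptor stimulated with 2 nM (final) PGF2α in calcium-free Tyrode with 2 mM CaCl2.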

Sequence of FP receptor (P43088 whole entry): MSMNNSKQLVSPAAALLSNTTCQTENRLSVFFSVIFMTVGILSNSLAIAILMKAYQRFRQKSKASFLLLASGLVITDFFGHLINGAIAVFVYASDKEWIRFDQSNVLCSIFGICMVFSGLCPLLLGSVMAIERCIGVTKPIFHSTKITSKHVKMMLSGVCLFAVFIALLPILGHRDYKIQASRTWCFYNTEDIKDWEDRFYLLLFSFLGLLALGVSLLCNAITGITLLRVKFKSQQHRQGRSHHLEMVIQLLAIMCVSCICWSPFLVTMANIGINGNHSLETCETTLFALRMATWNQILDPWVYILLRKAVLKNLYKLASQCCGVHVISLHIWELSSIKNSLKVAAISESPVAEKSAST

Compound	IC50 [nM]
COCC1CCCN(c2nc3ccc(Br)cc3c(C(=O)NCC(CCC(=O)O)c3ccccc3Cl)c2C)C1 (stereo not shown) [Example 93, 5-[({6-Bromo-2-[3-(methoxymethyl)piperidin-1-yl]-3-methylquinolin-4-yl}carbonyl)amino]-4-(2-chlorophenyl)pentanoic acid]	80
Cc1c(N2CC=CCC2)nc2ccc(Br)cc2c1C(=O)NCC(CCC(=O)O)c1ccccc1Cl (single isomer, unassigned) [Example 31, 5-({[6-Bromo-2-(3,6-dihydropyridin-1(2H)-yl)-3-methylquinolin-4-yl]carbonyl}amino)-4-(2-chlorophenyl)pentanoic acid]	29
Cc1c(N2CCCCCC2)nc2ccc(Br)cc2c1C(=O)NCC(CCC(=O)O)c1c(F)ccc(F)c1Cl (single isomer, unassigned) [Example 220, 5-({[2-(Azepan-1-yl)-6-bromo-3-methylquinolin-4-yl]carbonyl}amino)-4-(2-chloro-3,6-difluorophenyl)pentanoic acid]	0.76
Cc1c(N2CCCC2)nc2ccc(Br)cc2c1C(=O)NCC(CCC(=O)O)c1cc(F)ccc1F (single isomer, unassigned; (+)) [Example 259, (+)-5-({[6-Bromo-3-methyl-2-(pyrrolidin-1-yl)quinolin-4-yl]carbonyl}amino)-4-(2,5-difluorophenyl)pentanoic acid]	55
COc1ccccc1C(CCC(=O)O)CNC(=O)c1c(C)c(N2CCCC2)nc2ccc(Br)cc12 (single isomer, unassigned; (-)) [Example 238, (−)-5-({[6-Bromo-3-methyl-2-(pyrrolidin-1-yl)quinolin-4-yl]carbonyl}amino)-4-(2-methoxyphenyl)pentanoic acid]	44
Cc1c(N2CCS(=O)(=O)CC2)nc2ccc(Br)cc2c1C(=O)NCC(CCC(=O)O)c1ccccc1Cl (racemic) [Example 87, (+/−)-5-({[6-Bromo-2-(1,1-dioxidothiomorpholin-4-yl)-3-methylquinolin-4-yl]carbonyl}amino)-4-(2-chlorophenyl)pentanoic acid]	550
Cc1c(N2CC3CCCCC3C2)nc2ccc(Br)cc2c1C(=O)NCC(CCC(=O)O)c1ccccc1Cl (racemic) [Example 86, (+/−)-5-({[6-Bromo-3-methyl-2-(octahydro-2H-isoindol-2-yl)quinolin-4-yl]carbonyl}amino)-4-(2-chlorophenyl)pentanoic acid]	330
Cc1c(N2CCCC(F)C2)nc2ccc(Br)cc2c1C(=O)NCC(CCC(=O)O)c1ccccc1OC(F)(F)F (stereo not shown) [Example 138, 5-[({6-Bromo-2-[3-fluoropiperidin-1-yl]-3-methylquinolin-4-yl}carbonyl)amino]-4-[2-(trifluoromethoxy)phenyl]pentanoic acid]	3
Cc1c(N2CCCC(F)(F)C2)nc2ccc(Br)cc2c1C(=O)NCC(CCC(=O)O)c1cc(F)ccc1F (single isomer, unassigned; (+)) [Example 263, (+)-5-({[6-Bromo-2-(3,3-difluoropiperidin-1-yl)-3-methylquinolin-4-yl]carbonyl}amino)-4-(2,5-difluorophenyl)pentanoic acid]	28
Cc1c(N2CCCC(C)C2)nc2ccc(Br)cc2c1C(=O)NCC(CCC(=O)O)c1ccccc1Cl (single isomer, unassigned; (-)) [Example 49, (−)-5-[({6-Bromo-3-methyl-2-[3-methylpiperidin-1-yl]quinolin-4-yl}carbonyl)amino]-4-(2-chlorophenyl)pentanoic acid]	14
CCC1CCCN(c2nc3ccc(Br)cc3c(C(=O)NCC(CCC(=O)O)c3ccccc3OC(F)(F)F)c2C)C1 (single isomer, unassigned; (+)) [Example 205, (+)-5-[({6-Bromo-2-[3-ethylpiperidin-1-yl]-3-methylquinolin-4-yl}carbonyl)amino]-4-[2-(trifluoromethoxy)phenyl]pentanoic acid]	0.41
Cc1ccccc1C(CCC(=O)O)CNC(=O)c1c(C)c(N2CCCC2)nc2ccc(Br)cc12 (single isomer, unassigned; (+)) [Example 233, (+)-5-({[6-Bromo-3-methyl-2-(pyrrolidin-1-yl)quinolin-4-yl]carbonyl}amino)-4-(2-methylphenyl)pentanoic acid]	84
Cc1c(N2CCCC(F)(F)C2)nc2ccc(Br)cc2c1C(=O)NCC(CCC(=O)O)c1c(Cl)cccc1Cl (single isomer, unassigned; (+)) [Example 266, (+)-5-({[6-Bromo-2-(3,3-difluoropiperidin-1-yl)-3-methylquinolin-4-yl]carbonyl}amino)-4-(2,6-dichlorophenyl)pentanoic acid]	37
Cc1c(N2CCCC(F)(F)C2)nc2ccc(Br)cc2c1C(=O)NCC(CCC(=O)O)c1c(Cl)ccc(Cl)c1Cl (racemic) [Example 177, (+/−)-5-({[6-Bromo-2-(3,3-difluoropiperidin-1-yl)-3-methylquinolin-4-yl]carbonyl}amino)-4-(2,3,6-trichlorophenyl)pentanoic acid]	10
Cc1c(N2CCCCC2)nc2ccc(Br)cc2c1C(=O)NCC(CCC(=O)O)c1c(Cl)ccc(F)c1F (single isomer, unassigned; (+)) [Example 146, (+)-5-({[6-Bromo-3-methyl-2-(piperidin-1-yl)quinolin-4-yl]carbonyl}amino)-4-(6-chloro-2,3-difluorophenyl)pentanoic acid]	22
[2H]C1([2H])N(c2nc3ccc(Br)cc3c(C(=O)NCC(CCC(=O)O)c3ccccc3C(F)(F)F)c2C)C([2H])([2H])C([2H])([2H])C([2H])([2H])C1([2H])[2H] (single isomer, unassigned; (-)) [Example 269, (−)-5-[({6-Bromo-3-methyl-2-[(^2H10)piperidin-1-yl]quinolin-4-yl}carbonyl)amino]-4-[2-(trifluoromethyl)phenyl]pentanoic acid]	2.8
Cc1c(N2CCCC(F)(F)C2)nc2ccc(Br)cc2c1C(=O)NCC(CCC(=O)O)c1c(Cl)ccc(Cl)c1Cl (single isomer, unassigned; (+)) [Example 178, (+)-5-({[6-Bromo-2-(3,3-difluoropiperidin-1-yl)-3-methylquinolin-4-yl]carbonyl}amino)-4-(2,3,6-trichlorophenyl)pentanoic acid]	56
Cc1c(N2CCCCCC2)nc2ccc(Br)cc2c1C(=O)NCC(CCC(=O)O)c1ccccc1OC(F)(F)F (single isomer, unassigned; (+)) [Example 137, (+)-5-({[2-(Azepan-1-yl)-6-bromo-3-methylquinolin-4-yl]carbonyl}amino)-4-[2-(trifluoromethoxy)phenyl]pentanoic acid]	3.8
CCC1CCCN(c2nc3ccc(Br)cc3c(C(=O)NCC(CCC(=O)O)c3ccccc3Cl)c2C)C1 (racemic) [Example 57, (+/−)-5-[({6-Bromo-2-[3-ethylpiperidin-1-yl]-3-methylquinolin-4-yl}carbonyl)amino]-4-(2-chlorophenyl)pentanoic acid]	0.84
COc1ccccc1C(CCC(=O)O)CNC(=O)c1c(C)c(N2CCCCCC2)nc2ccc(Br)cc12 (single isomer, unassigned; (+)) [Example 239, (+)-5-({[2-(Azepan-1-yl)-6-bromo-3-methylquinolin-4-yl]carbonyl}amino)-4-(2-methoxyphenyl)pentanoic acid]	1.4
CCC1CCCN(c2nc3ccc(Br)cc3c(C(=O)NCC(CCC(=O)O)c3c(F)cccc3F)c2C)C1 (stereo not shown) [Example 254, 5-[({6-Bromo-2-(3-ethylpiperidin-1-yl)-3-methylquinolin-4-yl}carbonyl)amino]-4-(2,6-difluorophenyl)pentanoic acid]	2.8
CCC1CCCN(c2nc3ccc(Br)cc3c(C(=O)NCC(CCC(=O)O)c3ccccc3OC(F)(F)F)c2C)C1 (single isomer, unassigned; (+)) [Example 208, (+)-5-[({6-Bromo-2-[3-ethylpiperidin-1-yl]-3-methylquinolin-4-yl}carbonyl)amino]-4-[2-(trifluoromethoxy)phenyl]pentanoic acid]	1.4
Cc1c(N2CCCC(F)C2)nc2ccc(Br)cc2c1C(=O)NCC(CCC(=O)O)c1ccccc1C(F)(F)F (stereo not shown) [Example 123, 5-[({6-Bromo-2-[3-fluoropiperidin-1-yl]-3-methylquinolin-4-yl}carbonyl)amino]-4-[2-(trifluoromethyl)phenyl]pentanoic acid]	13
Cc1c(N2CCCCC2)nc2ccc(Br)cc2c1C(=O)NCC(CCC(=O)O)c1c(F)cccc1F (racemic) [Example 244, (+/−)-5-({[6-Bromo-3-methyl-2-(piperidin-1-yl)quinolin-4-yl]carbonyl}amino)-4-(2,6-difluorophenyl)pentanoic acid]	12
Cc1c(N2CCCC(O)C2)nc2ccc(Br)cc2c1C(=O)NCC(CCC(=O)O)c1ccccc1Cl (stereo not shown) [Example 55, 5-[({6-Bromo-2-[3-hydroxypiperidin-1-yl]-3-methylquinolin-4-yl}carbonyl)amino]-4-(2-chlorophenyl)pentanoic acid]	110
Cc1c(N2CCCCC2)nc2ccc(Br)cc2c1C(=O)NCC(CCC(=O)O)c1c(F)cccc1OC(F)F (single isomer, unassigned; (-)) [Example 183, (−)-5-({[6-Bromo-3-methyl-2-(piperidin-1-yl)quinolin-4-yl]carbonyl}amino)-4-[2-(difluoromethoxy)-6-fluorophenyl]pentanoic acid]	1.6
Cc1c(N2C[C@@H](C)O[C@@H](C)C2)nc2ccc(Br)cc2c1C(=O)NCC(CCC(=O)O)c1cc(F)ccc1Cl (mixture of isomers) [Example 12, (+/−)-5-[({6-Bromo-2-[cis-2,6-dimethylmorpholin-4-yl]-3-methylquinolin-4-yl}carbonyl)amino]-4-(2-chloro-5-fluorophenyl)pentanoic acid]	220
Cc1c(N2CC=CCO2)nc2ccc(Br)cc2c1C(=O)NCC(CCC(=O)O)c1ccccc1Cl (racemic) [Example 77, (+/−)-5-({[6-Bromo-2-(3,6-dihydro-2H-1,2-oxazin-2-yl)-3-methylquinolin-4-yl]carbonyl}amino)-4-(2-chlorophenyl)pentanoic acid]	66
